Our source for the IC50 and Activity values is ChEMBL document CHEMBL3352806, “Cytotoxic bibenzyl dimers from the stems of Dendrobium fimbriatum Hook” (Bioorg Med Chem Lett, 2014).

Holding throughout (assay type): functional, cell-based
Assay [1] deals with SMMC-7721. Nature of the assay: Cytotoxicity against human SMMC7721 cells assessed as reduction in cell number.
Assay [2] has as its system MCF7. Nature of the assay: Cytotoxicity against human MCF7 cells assessed as reduction in cell number.
Assay [3] relates to A549. Nature of the assay: Cytotoxicity against human A549 cells assessed as reduction in cell number.
The subject of assay [4] is SW480. Nature of the assay: Cytotoxicity against human SW480 cells assessed as reduction in cell number.
Assay [5] can be described thus: Cytotoxicity against human HL60 cells assessed as reduction in cell number. The note with it: HL-60.
The test system of assay [6] is A549. Nature of the assay: Cytotoxicity against human A549 cells assessed as reduction in cell number at 40 uM.
Assay [7] relates to SMMC-7721. Nature of the assay: Cytotoxicity against human SMMC7721 cells assessed as reduction in cell number at 40 uM.
The subject of assay [8] is SW480. Nature of the assay: Cytotoxicity against human SW480 cells assessed as reduction in cell number at 40 uM.
In the next assay the test system is HL-60. Nature of the assay: Cytotoxicity against human HL60 cells assessed as reduction in cell number at 40 uM.
Assay [9] has as its system MCF7. In words: Cytotoxicity against human MCF7 cells assessed as reduction in cell number at 40 uM.

The structures appear in SMILES notation. Activity calls are given as the source filed them. The calls are words filed in the database; no cut-off is given here.

As for `COc1cc(CCc2cc(O)cc(OC)c2Cc2c(CCc3ccc(O)c(OC)c3)cc(O)cc2OC)ccc1O`, the IC50 stood at 16.9 µM in the assay with SMMC-7721 [1]; 5.85 µM in the assay with MCF7 [2]; 14.5 µM in the assay with A549 [3]; 18.8 µM in the assay with SW480 [4]; 13.9 µM in assay [5].
Regarding `COc1cc(CCc2cc(OC)c(O)c(OC)c2)ccc1O` [MOSCATILIN], the IC50 was determined as 4.07 µM in the assay on SMMC-7721 [1]; 6.2 µM in the assay on MCF7 [2]; 5.73 µM in the assay on A549 [3]; 6.88 µM in the assay with SW480 [4]; 2.18 µM in [5].
For `COc1cc(O)c(Cc2c(CCc3ccc(O)c(OC)c3)cc(O)cc2OC)c(CCc2ccc(O)c(OC)c2)c1`, in that order: 18.9 µM, 7.75 µM, 16.5 µM, 21.2 µM and 16.8 µM.
`COc1cc(CCc2cc(O)c(Cc3c(CCc4ccc(O)c(OC)c4)cc(O)cc3OC)c(OC)c2)ccc1O`: the IC50 came to 16.6 µM in the assay with SMMC-7721 [1]; 12.1 µM with MCF7 [2]; 15.6 µM in the assay on A549 [3]; 18.2 µM with SW480 [4]; 15.8 µM in [5].
As for `COc1cc(CC(OC)c2cc(OC)c(O)c(OC)c2)ccc1O` (stereo not given), the outcome with A549 [6], in the assay with SMMC-7721 [7], in the assay with SW480 [8], in the assay with HL-60 and in the assay on MCF7 [9] was inactive.
Take `COc1cc(CCc2cc(O)c(OC)c(OC)c2)ccc1O`: the IC50 is more than 40 µM with SMMC-7721 [1]; 37.1 µM with MCF7 [2]; more than 40 µM in the assay on A549 [3]; more than 40 µM in the assay on SW480 [4]; 24.3 µM in assay [5].
Consider `COc1cc(O)c(Cc2c(O)cc(CCc3ccc(O)c(OC)c3)cc2OC)c(CCc2ccc(O)c(OC)c2)c1`, for which the IC50 is 18.3 µM in the assay with SMMC-7721 [1]; 12.7 µM with MCF7 [2]; 16.3 µM with A549 [3]; 17.2 µM in the assay with SW480 [4]; 16.1 µM in [5].
Consider `Oc1cc(O)c2c(c1)C[C@H](O)c1cccc(O)c1-2`, for which the outcome in the assay with A549 [6], with SMMC-7721 [7], in the assay with SW480 [8], in the assay with HL-60 and in the assay on MCF7 [9] was inactive.
On to `COc1ccc(CCc2cc(OC)c(O)c(OC)c2)cc1O`, for which the IC50 is 10.1 µM in the assay with SMMC-7721 [1]; 12.3 µM with MCF7 [2]; 6.6 µM in the assay with A549 [3]; 5.17 µM in the assay with SW480 [4]; 2.95 µM in [5].
With `COc1cc(CCc2cc(O)c(Cc3c(CCc4cccc(O)c4)cc(O)cc3OC)c(OC)c2)ccc1O`, the IC50 in the assay on SMMC-7721 [1] is more than 40 µM; with MCF7 [2], 24.8 µM; with A549 [3] it was more than 40 µM; in the assay on SW480 [4] it was more than 40 µM; in assay [5] it was 22.3 µM.
With `COc1cc(O)cc(CCc2cccc(O)c2)c1`, the outcome with A549 [6], in the assay with SMMC-7721 [7], with SW480 [8], in the assay with HL-60 and in the assay on MCF7 [9] was inactive.
On to `COc1cc(CCc2cc(O)cc(O)c2Cc2c(O)cc(O)cc2CCc2ccc(O)c(OC)c2)ccc1O`, for which the outcome in the assay on A549 [6], in the assay on SMMC-7721 [7], in the assay with SW480 [8], with HL-60 and with MCF7 [9] was inactive.
Turning to `COc1cc(CCc2cc(O)cc(O)c2)ccc1O`, the result in the assay on A549 [6], in the assay with SMMC-7721 [7], with SW480 [8], in the assay on HL-60 and in the assay on MCF7 [9] was inactive.
Regarding `COc1cc(O)cc(CCc2ccc(O)c(OC)c2)c1`, the outcome in the assay on A549 [6], in the assay with SMMC-7721 [7], with SW480 [8], in the assay with HL-60 and in the assay with MCF7 [9] was inactive.
In the case of `COc1cc(O)c(Cc2c(O)cc(OC)cc2CCc2ccc(O)c(OC)c2)c(CCc2ccc(O)c(OC)c2)c1`, the IC50 was determined as 17.5 µM in the assay with SMMC-7721 [1]; 13.7 µM with MCF7 [2]; 16.6 µM with A549 [3]; 18.8 µM in the assay with SW480 [4]; 19.1 µM in assay [5].

The IC50 is the concentration at which inhibition is half-maximal.
